Residues, ends and D or L forms follow the SMILES beside them.
target: T1, human noradrenaline transporter (hNET) (Homo sapiens, UniProt P23975); assay: biochemical; assay type: binding; conditions: not given
T1 construct: expressed in transfected cells; host or cells: COS-7 cells (ATCC), transient transfection with metafectene
T1 sequence (P23975 whole entry): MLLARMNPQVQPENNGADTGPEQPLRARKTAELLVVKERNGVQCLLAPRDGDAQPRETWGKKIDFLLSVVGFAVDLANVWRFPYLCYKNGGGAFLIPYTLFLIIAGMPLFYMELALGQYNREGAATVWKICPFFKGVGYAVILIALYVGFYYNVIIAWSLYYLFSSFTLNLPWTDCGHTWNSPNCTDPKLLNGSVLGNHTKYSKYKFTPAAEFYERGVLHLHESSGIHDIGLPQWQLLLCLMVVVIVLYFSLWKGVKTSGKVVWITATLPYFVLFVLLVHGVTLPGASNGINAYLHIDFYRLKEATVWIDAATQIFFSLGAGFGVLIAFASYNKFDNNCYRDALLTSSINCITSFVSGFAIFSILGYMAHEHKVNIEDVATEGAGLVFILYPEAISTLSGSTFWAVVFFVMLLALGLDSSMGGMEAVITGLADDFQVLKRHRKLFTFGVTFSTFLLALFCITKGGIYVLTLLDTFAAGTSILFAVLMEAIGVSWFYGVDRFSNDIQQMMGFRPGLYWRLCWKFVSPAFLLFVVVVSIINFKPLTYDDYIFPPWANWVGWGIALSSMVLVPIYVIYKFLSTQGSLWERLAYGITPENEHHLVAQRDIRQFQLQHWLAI

Compound	Av IC50 Displacement of 3H-nisoxetine from hNET
YNGVCCGYWLCHPC [compound 211]	−2.00
YNGVCCGYKLCRPC [compound 207]	−2.00

same assay, conditions: Av IC50 Displacement of 3H-nisoxetine from hNET

Compound	IC50
CC(C)[C@H](NC(=O)CNC(=O)[C@@H](N)CC(N)=O)C(=O)N[C@H]1CSSC[C@@H](C(N)=O)NC(=O)[C@@H]2CCCN2C(=O)[C@H](Cc2c[nH]cn2)NC(=O)[C@@H]2CSSC[C@H](NC1=O)C(=O)NCC(=O)N[C@@H](Cc1ccc(O)cc1)C(=O)N[C@@H](CCCCN)C(=O)N[C@@H](CCCCN)C(=O)N2 [compound 196] (HELM PEPTIDE1{N.G.V.C.C.G.Y.K.K.C.H.P.C.[am]}$PEPTIDE1,PEPTIDE1,4:R3-13:R3|PEPTIDE1,PEPTIDE1,5:R3-10:R3$$$V2.0)	182 µM
CC(=O)N[C@@H](CC(N)=O)C(=O)NCC(=O)N[C@H](C(=O)N[C@H]1CSSC[C@@H](C(N)=O)NC(=O)[C@@H]2CCCN2C(=O)[C@H](Cc2c[nH]cn2)NC(=O)[C@@H]2CSSC[C@H](NC1=O)C(=O)NCC(=O)N[C@@H](Cc1ccc(O)cc1)C(=O)N[C@@H](CCCCN)C(=O)N[C@@H](CC(C)C)C(=O)N2)C(C)C [compound 152]	3.63 µM
CC(C)C[C@@H]1NC(=O)[C@H](CCCCN)NC(=O)[C@H](CC(N)=O)NC(=O)CNC(=O)[C@@H]2CSSC[C@H](NC1=O)C(=O)N[C@@H](Cc1c[nH]cn1)C(=O)N1CCC[C@H]1C(=O)N[C@H](C(N)=O)CSSC[C@H](NC(=O)[C@@H](NC(=O)CNC(=O)[C@H](CC(N)=O)NC(=O)[C@@H](N)Cc1ccc(O)cc1)C(C)C)C(=O)N2 [compound 184] (HELM PEPTIDE1{Y.N.G.V.C.C.G.N.K.L.C.H.P.C.[am]}$PEPTIDE1,PEPTIDE1,5:R3-14:R3|PEPTIDE1,PEPTIDE1,6:R3-11:R3$$$V2.0)	79.4 µM
CC(C)C[C@@H]1NC(=O)[C@H](CCCCN)NC(=O)[C@H](Cc2ccc(O)cc2)NC(=O)CNC(=O)[C@@H]2CSSC[C@H](NC1=O)C(=O)N[C@@H](Cc1c[nH]cn1)C(=O)N1CCC[C@H]1C(=O)N[C@H](C(N)=O)CSSC[C@H](NC(=O)[C@@H](NC(=O)[C@H](CC(=O)O)NC(=O)[C@@H](N)CC(N)=O)C(C)C)C(=O)N2 [compound 63] (HELM PEPTIDE1{N.D.V.C.C.G.Y.K.L.C.H.P.C.[am]}$PEPTIDE1,PEPTIDE1,4:R3-13:R3|PEPTIDE1,PEPTIDE1,5:R3-10:R3$$$V2.0)	0.191 µM
CC(C)C[C@@H]1NC(=O)[C@H](CCCCN)NC(=O)[C@H](CCC(=O)O)NC(=O)CNC(=O)[C@@H]2CSSC[C@H](NC1=O)C(=O)N[C@@H](Cc1c[nH]cn1)C(=O)N1CCC[C@H]1C(=O)N[C@H](C(N)=O)CSSC[C@H](NC(=O)[C@@H](NC(=O)CNC(=O)[C@H](CC(N)=O)NC(=O)[C@@H](N)Cc1ccc(O)cc1)C(C)C)C(=O)N2 [compound 195] (HELM PEPTIDE1{Y.N.G.V.C.C.G.E.K.L.C.H.P.C.[am]}$PEPTIDE1,PEPTIDE1,5:R3-14:R3|PEPTIDE1,PEPTIDE1,6:R3-11:R3$$$V2.0)	170 µM
CC(C)C[C@@H]1NC(=O)[C@H](CCCCN)NC(=O)[C@H](Cc2ccc(O)cc2)NC(=O)CNC(=O)[C@@H]2CSSC[C@H](NC1=O)C(=O)N[C@@H](Cc1c[nH]cn1)C(=O)N[C@@H](C)C(=O)N[C@H](C(N)=O)CSSC[C@H](NC(=O)[C@@H](NC(=O)CNC(=O)[C@H](CCCNC(=N)N)NC(=O)[C@@H](N)Cc1c[nH]c3ccccc13)C(C)C)C(=O)N2 [compound 54]	0.158 µM
CC(C)C[C@@H]1NC(=O)[C@H](CCCCN)NC(=O)[C@H](Cc2ccc(O)cc2)NC(=O)CNC(=O)[C@@H]2CSSC[C@H](NC1=O)C(=O)N[C@@H](CCCNC(=N)N)C(=O)N[C@@H](C)C(=O)N[C@H](C(N)=O)CSSC[C@H](NC(=O)[C@@H](NC(=O)CNC(=O)[C@H](CC(N)=O)NC(=O)[C@@H](N)Cc1ccc(O)cc1)C(C)C)C(=O)N2 [compound 81]	0.295 µM
CC(C)C[C@@H]1NC(=O)[C@H](CCCCN)NC(=O)[C@H](Cc2ccc(O)cc2)NC(=O)CNC(=O)[C@@H]2CSSC[C@H](NC1=O)C(=O)N[C@@H](Cc1c[nH]c3ccccc13)C(=O)N1CCC[C@H]1C(=O)N[C@H](C(N)=O)CSSC[C@H](NC(=O)[C@@H](NC(=O)CNC(=O)[C@@H](N)CC(N)=O)C(C)C)C(=O)N2 [compound 59] (HELM PEPTIDE1{N.G.V.C.C.G.Y.K.L.C.W.P.C.[am]}$PEPTIDE1,PEPTIDE1,4:R3-13:R3|PEPTIDE1,PEPTIDE1,5:R3-10:R3$$$V2.0)	0.174 µM
CC(=O)N[C@@H](Cc1ccc(O)cc1)C(=O)N[C@@H](CC(N)=O)C(=O)NCC(=O)N[C@H](C(=O)N[C@H]1CSSC[C@@H](C(N)=O)NC(=O)[C@@H]2CCCN2C(=O)[C@H](Cc2c[nH]cn2)NC(=O)[C@@H]2CSSC[C@H](NC1=O)C(=O)NCC(=O)N[C@@H](Cc1ccc(O)cc1)C(=O)N[C@@H](CCCCN)C(=O)N[C@@H](CC(C)C)C(=O)N2)C(C)C [compound 161]	6.17 µM
CC(C)C[C@H](NC(=O)[C@H](CC(=O)O)NC(=O)[C@H](CCCCN)NC(=O)[C@@H](N)Cc1c[nH]c2ccccc12)C(=O)N[C@H]1CSSC[C@@H](C(N)=O)NC(=O)[C@@H]2CCCN2C(=O)[C@H](Cc2c[nH]c3ccccc23)NC(=O)[C@@H]2CSSC[C@H](NC1=O)C(=O)NCC(=O)N[C@@H](Cc1ccc(O)cc1)C(=O)N[C@@H](CCCCN)C(=O)N[C@@H](CC(C)C)C(=O)N2 [compound 90] (HELM PEPTIDE1{W.K.D.L.C.C.G.Y.K.L.C.W.P.C.[am]}$PEPTIDE1,PEPTIDE1,5:R3-14:R3|PEPTIDE1,PEPTIDE1,6:R3-11:R3$$$V2.0)	0.355 µM
CC(C)C[C@@H]1NC(=O)[C@H](CCC(N)=O)NC(=O)[C@H](Cc2ccc(O)cc2)NC(=O)CNC(=O)[C@@H]2CSSC[C@H](NC1=O)C(=O)N[C@@H](Cc1c[nH]cn1)C(=O)N1CCC[C@H]1C(=O)N[C@H](C(N)=O)CSSC[C@H](NC(=O)[C@@H](NC(=O)CNC(=O)[C@@H](N)CC(N)=O)C(C)C)C(=O)N2 [compound 194] (HELM PEPTIDE1{N.G.V.C.C.G.Y.Q.L.C.H.P.C.[am]}$PEPTIDE1,PEPTIDE1,4:R3-13:R3|PEPTIDE1,PEPTIDE1,5:R3-10:R3$$$V2.0)	123 µM
CC(C)C[C@@H]1NC(=O)[C@H](CCCCN)NC(=O)[C@H](Cc2ccc(O)cc2)NC(=O)[C@@H](CCC(=O)O)NC(=O)[C@@H]2CSSC[C@H](NC1=O)C(=O)N[C@@H](Cc1c[nH]cn1)C(=O)N1CCC[C@H]1C(=O)N[C@H](C(N)=O)CSSC[C@H](NC(=O)[C@@H](NC(=O)CNC(=O)[C@@H](N)CC(N)=O)C(C)C)C(=O)N2 [compound 183]	61.7 µM
CC(C)C[C@@H]1NC(=O)[C@H](CCCCN)NC(=O)[C@H](Cc2ccc(O)cc2)NC(=O)CNC(=O)[C@@H]2CSSC[C@H](NC1=O)C(=O)N[C@@H](Cc1c[nH]cn1)C(=O)N1CCC[C@H]1C(=O)N[C@H](C(N)=O)CSSC[C@H](NC(=O)[C@@H](NC(=O)CNC(=O)[C@@H](N)CC(=O)O)C(C)C)C(=O)N2 [compound 151]	3.55 µM
CC(C)C[C@@H]1NC(=O)[C@H](C)NC(=O)[C@H](Cc2ccc(O)cc2)NC(=O)CNC(=O)[C@@H]2CSSC[C@H](NC1=O)C(=O)N[C@@H](Cc1c[nH]cn1)C(=O)N1CCC[C@H]1C(=O)N[C@H](C(N)=O)CSSC[C@H](NC(=O)[C@@H](NC(=O)CNC(=O)[C@@H](N)CC(N)=O)C(C)C)C(=O)N2 [compound 172]	10.7 µM
CC(C)C[C@@H]1NC(=O)CNC(=O)[C@@H]2CSSC[C@H](NC(=O)[C@H](CC(C)C)NC(=O)[C@H](CCCCN)NC1=O)C(=O)N[C@@H](Cc1c[nH]cn1)C(=O)N1CCC[C@H]1C(=O)N[C@H](C(N)=O)CSSC[C@H](NC(=O)[C@@H](NC(=O)CNC(=O)[C@H](CC(N)=O)NC(=O)[C@@H](N)Cc1ccc(O)cc1)C(C)C)C(=O)N2 [compound 171] (HELM PEPTIDE1{Y.N.G.V.C.C.G.L.K.L.C.H.P.C.[am]}$PEPTIDE1,PEPTIDE1,5:R3-14:R3|PEPTIDE1,PEPTIDE1,6:R3-11:R3$$$V2.0)	10.7 µM
CC(C)C[C@@H]1NC(=O)[C@H](CCCCN)NC(=O)[C@H](Cc2ccc(O)cc2)NC(=O)CNC(=O)[C@@H]2CSSC[C@H](NC1=O)C(=O)N[C@@H](CCCNC(=N)N)C(=O)N1CCC[C@H]1C(=O)N[C@H](C(N)=O)CSSC[C@H](NC(=O)[C@@H](NC(=O)CNC(=O)[C@H](CC(N)=O)NC(=O)[C@@H](N)Cc1c[nH]c3ccccc13)C(C)C)C(=O)N2 [compound 60]	0.178 µM
CC(C)C[C@H](NC(=O)CNC(=O)[C@H](CCCNC(=N)N)NC(=O)[C@@H](N)Cc1c[nH]c2ccccc12)C(=O)N[C@H]1CSSC[C@@H](C(N)=O)NC(=O)CNC(=O)[C@H](CCCNC(=N)N)NC(=O)[C@@H]2CSSC[C@H](NC1=O)C(=O)NCC(=O)N[C@@H](Cc1ccc(O)cc1)C(=O)N[C@@H](CCCCN)C(=O)N[C@@H](CC(C)C)C(=O)N2 [compound 64] (HELM PEPTIDE1{W.R.G.L.C.C.G.Y.K.L.C.R.G.C.[am]}$PEPTIDE1,PEPTIDE1,5:R3-14:R3|PEPTIDE1,PEPTIDE1,6:R3-11:R3$$$V2.0; N-terminus and C-terminus assumed)	0.191 µM
CC(C)C[C@@H]1NC(=O)[C@H](Cc2ccc(O)cc2)NC(=O)CNC(=O)[C@@H]2CSSC[C@H](NC(=O)[C@H](CC(C)C)NC1=O)C(=O)N[C@@H](Cc1c[nH]cn1)C(=O)N1CCC[C@H]1C(=O)N[C@H](C(N)=O)CSSC[C@H](NC(=O)[C@@H](NC(=O)CNC(=O)[C@H](CC(N)=O)NC(=O)[C@@H](N)Cc1ccc(O)cc1)C(C)C)C(=O)N2 [compound 174] (HELM PEPTIDE1{Y.N.G.V.C.C.G.Y.L.L.C.H.P.C.[am]}$PEPTIDE1,PEPTIDE1,5:R3-14:R3|PEPTIDE1,PEPTIDE1,6:R3-11:R3$$$V2.0)	17.4 µM
CC(C)C[C@H](NC(=O)CNC(=O)[C@@H](N)CC(N)=O)C(=O)N[C@H]1CSSC[C@@H](C(N)=O)NC(=O)[C@@H]2CCCN2C(=O)[C@H](Cc2c[nH]cn2)NC(=O)[C@@H]2CSSC[C@H](NC1=O)C(=O)NCC(=O)N[C@@H](Cc1ccc(O)cc1)C(=O)N[C@@H](CCCCN)C(=O)N[C@@H](CC(C)C)C(=O)N2 [compound 97]	0.501 µM
CC(C)C[C@@H]1NC(=O)[C@H](CCCCN)NC(=O)[C@H](Cc2ccc(O)cc2)NC(=O)CNC(=O)[C@@H]2CSSC[C@H](NC1=O)C(=O)N[C@@H](Cc1c[nH]cn1)C(=O)N1CCC[C@H]1C(=O)N[C@H](C(N)=O)CSSC[C@H](NC(=O)[C@@H](NC(=O)CNC(=O)[C@@H](N)CC(N)=O)[C@@H](C)O)C(=O)N2 [compound 138] (HELM PEPTIDE1{N.G.T.C.C.G.Y.K.L.C.H.P.C.[am]}$PEPTIDE1,PEPTIDE1,4:R3-13:R3|PEPTIDE1,PEPTIDE1,5:R3-10:R3$$$V2.0)	2.29 µM
